# Experimental data from patent US9062124B2, “GIP-based mixed agonists for treatment of metabolic disorders and obesity” (priority 2008, dated 2015).
# Where a SMILES comes first, the peptide text is derived from it. Bridges are numbered along the chain shown (N, C = ends). [ ]: non-standard residue; d: D form. Aib = CC(C)(N)C(=O)O
# What was measured:
# Assay type in all cases: cell-based
# GLP-1 receptor = molecular target: T1, GLP-1 receptor (Homo sapiens, UniProt P43220); assay: cAMP synthesis functional assay (firefly luciferase reporter in HEK293 cells), GLP-1 receptor; details: Table 1; for GLP-1 Receptor relative activity: relative to the native hormone of the indicated receptor; for EC50: GLP-1 Receptor EC50, nM
# T1 construct: expressed in transfected cells; host or cells: HEK293
# glucagon receptor = molecular target: T2, glucagon receptor (Homo sapiens, UniProt P47871); assay: cAMP synthesis functional assay (firefly luciferase reporter in HEK293 cells), glucagon receptor; details: Table 1; for Glucagon Receptor relative activity: relative to the native hormone of the indicated receptor; for EC50: Glucagon Receptor EC50, nM
# T2 construct: expressed in transfected cells; host or cells: HEK293
# [1] = tested on: glucagon receptor, GLP-1 receptor or GIP receptor; assay: Agonist profile across receptors assigned from the cAMP reporter assay data; details: assigned from the in vitro EC50 data of Tables 1-4
# GIP receptor = molecular target: T3, GIP receptor (Homo sapiens, UniProt P48546); assay: cAMP synthesis functional assay (firefly luciferase reporter in HEK293 cells), GIP receptor; details: Table 1; for GIP Receptor relative activity: relative to the native hormone of the indicated receptor; for EC50: GIP Receptor EC50, nM
# T3 construct: expressed in transfected cells; host or cells: HEK293
# T3 sequence (P48546 22-466): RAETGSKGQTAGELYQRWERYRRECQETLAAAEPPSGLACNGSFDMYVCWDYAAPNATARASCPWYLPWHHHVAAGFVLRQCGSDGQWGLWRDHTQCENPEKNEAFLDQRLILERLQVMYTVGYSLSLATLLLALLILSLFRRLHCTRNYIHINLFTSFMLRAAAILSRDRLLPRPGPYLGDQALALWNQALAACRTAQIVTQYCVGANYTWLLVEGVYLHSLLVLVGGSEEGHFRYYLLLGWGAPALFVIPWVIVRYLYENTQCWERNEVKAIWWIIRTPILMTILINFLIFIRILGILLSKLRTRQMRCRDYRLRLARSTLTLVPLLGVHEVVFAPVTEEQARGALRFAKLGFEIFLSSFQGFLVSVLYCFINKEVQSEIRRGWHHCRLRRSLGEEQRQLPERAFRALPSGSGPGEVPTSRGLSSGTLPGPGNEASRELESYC
# T1 sequence (P43220 24-463, species assumed): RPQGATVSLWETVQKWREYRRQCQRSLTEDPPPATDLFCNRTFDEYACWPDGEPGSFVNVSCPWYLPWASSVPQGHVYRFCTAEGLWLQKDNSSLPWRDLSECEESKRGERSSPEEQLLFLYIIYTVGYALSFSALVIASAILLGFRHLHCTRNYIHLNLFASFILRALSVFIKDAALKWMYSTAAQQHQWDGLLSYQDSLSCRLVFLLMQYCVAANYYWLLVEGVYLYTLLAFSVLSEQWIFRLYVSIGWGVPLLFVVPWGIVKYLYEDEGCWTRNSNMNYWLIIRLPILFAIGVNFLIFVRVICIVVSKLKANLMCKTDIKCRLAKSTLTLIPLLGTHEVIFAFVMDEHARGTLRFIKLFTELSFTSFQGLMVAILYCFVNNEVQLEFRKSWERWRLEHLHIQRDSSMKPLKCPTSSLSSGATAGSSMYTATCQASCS
# T2 sequence (P47871 26-477): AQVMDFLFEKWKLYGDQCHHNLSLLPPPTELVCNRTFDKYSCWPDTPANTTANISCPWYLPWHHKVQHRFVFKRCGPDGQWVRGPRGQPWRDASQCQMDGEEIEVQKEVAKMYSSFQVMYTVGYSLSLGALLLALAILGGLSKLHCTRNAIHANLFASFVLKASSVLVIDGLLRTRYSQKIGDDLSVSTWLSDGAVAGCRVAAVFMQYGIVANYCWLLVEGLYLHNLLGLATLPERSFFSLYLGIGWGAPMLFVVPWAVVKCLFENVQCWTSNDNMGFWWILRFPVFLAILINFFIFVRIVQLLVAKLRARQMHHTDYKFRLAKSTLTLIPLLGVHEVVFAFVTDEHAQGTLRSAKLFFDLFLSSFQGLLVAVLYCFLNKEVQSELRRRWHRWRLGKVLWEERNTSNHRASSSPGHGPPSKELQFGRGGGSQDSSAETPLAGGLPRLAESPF
SMILES,GLP-1 Receptor relative activity (GLP-1 receptor),Glucagon Receptor relative activity (glucagon receptor),receptor activity profile (glucagon / GLP-1 / GIP agonism) [1],GIP Receptor relative activity (GIP receptor),EC50 (GLP-1 receptor),EC50 (glucagon receptor),EC50 (GIP receptor)
CC[C@H](C)[C@H](NC(=O)[C@H](CO)NC(=O)[C@H](Cc1ccc(O)cc1)NC(=O)[C@H](CC(=O)O)NC(=O)[C@H](CO)NC(=O)[C@@H](NC(=O)[C@H](Cc1ccccc1)NC(=O)[C@@H](NC(=O)CNC(=O)[C@H](CCC(N)=O)NC(=O)C(C)(C)NC(=O)[C@@H](N)Cc1ccc(O)cc1)[C@@H](C)O)[C@@H](C)O)C(=O)N[C@@H](Cc1ccc(O)cc1)C(=O)N[C@@H](CC(C)C)C(=O)N[C@@H](CC(=O)O)C(=O)N[C@H]1CCC(=O)NCCCC[C@@H](C(=O)N[C@@H](CCC(=O)O)C(=O)N[C@@H](Cc2ccccc2)C(=O)N[C@H](C(=O)N[C@@H](CS)C(=O)N[C@@H](Cc2c[nH]c3ccccc23)C(=O)N[C@@H](CC(C)C)C(=O)N[C@@H](CC(C)C)C(=O)N[C@@H](C)C(=O)NCC(N)=O)C(C)C)NC(=O)[C@H](C)NC(=O)[C@H](C)NC(=O)[C@H](CCC(N)=O)NC1=O [mt-169] (H-Y[Aib]QGTFTSDYSIYLDEQAAKEFVCWLLAG-NH2; lactam 16-20; N-terminus assumed),54.39%,51.26%,exemplary GLP-1/GIP/glucagon triagonist peptides,14.79%,–,–,–
CC[C@H](C)[C@H](NC(=O)[C@H](CO)NC(=O)[C@H](Cc1ccc(O)cc1)NC(=O)[C@H](CC(=O)O)NC(=O)[C@H](CO)NC(=O)[C@@H](NC(=O)[C@H](Cc1ccccc1)NC(=O)[C@@H](NC(=O)CNC(=O)[C@H](CCC(=O)O)NC(=O)C(C)(C)NC(=O)[C@@H](N)Cc1ccc(O)cc1)[C@@H](C)O)[C@@H](C)O)C(=O)N[C@@H](Cc1ccc(O)cc1)C(=O)N[C@@H](CC(C)C)C(=O)N[C@@H](CC(=O)O)C(=O)N[C@H]1CCC(=O)NCCCC[C@@H](C(=O)N[C@@H](CCC(=O)O)C(=O)N[C@@H](Cc2ccccc2)C(=O)N[C@H](C(=O)N[C@@H](CC(N)=O)C(=O)N[C@@H](Cc2c[nH]c3ccccc23)C(=O)N[C@@H](CC(C)C)C(=O)N[C@@H](CC(C)C)C(=O)N[C@@H](C)C(=O)NCC(=O)NCC(=O)N2CCC[C@H]2C(=O)N[C@@H](CO)C(=O)N[C@@H](CO)C(=O)NCC(=O)N[C@@H](C)C(=O)N2CCC[C@H]2C(=O)N2CCC[C@H]2C(=O)N2CCC[C@H]2C(=O)N[C@@H](CO)C(=O)N[C@@H](CS)C(N)=O)C(C)C)NC(=O)[C@H](C)NC(=O)[C@H](C)NC(=O)[C@H](CCC(N)=O)NC1=O [mt-174] (H-Y[Aib]EGTFTSDYSIYLDEQAAKEFVNWLLAGGPSSGAPPPSC-NH2; lactam 16-20; N-terminus assumed),117.65%,0.06%,exemplary GLP-1/GIP co-agonist peptides,95.65%,–,–,–
CC[C@H](C)[C@H](NC(=O)[C@H](CO)NC(=O)[C@H](Cc1ccc(O)cc1)NC(=O)[C@H](CC(=O)O)NC(=O)[C@H](CO)NC(=O)[C@@H](NC(=O)[C@H](Cc1ccccc1)NC(=O)[C@@H](NC(=O)CNC(=O)[C@H](CCC(N)=O)NC(=O)C(C)(C)NC(=O)[C@@H](N)Cc1ccc(O)cc1)[C@@H](C)O)[C@@H](C)CC)C(=O)N[C@@H](Cc1ccc(O)cc1)C(=O)N[C@@H](CC(C)C)C(=O)N[C@@H](CC(=O)O)C(=O)N[C@H]1CCC(=O)NCCCC[C@@H](C(=O)N[C@@H](CCC(=O)O)C(=O)N[C@@H](Cc2ccccc2)C(=O)N[C@H](C(=O)N[C@@H](CC(N)=O)C(=O)N[C@@H](Cc2c[nH]c3ccccc23)C(=O)N[C@@H](CC(C)C)C(=O)N[C@@H](CC(C)C)C(=O)N[C@@H](C)C(=O)NCC(=O)NCC(=O)N2CCC[C@H]2C(=O)N[C@@H](CO)C(=O)N[C@@H](CO)C(=O)NCC(=O)N[C@@H](C)C(=O)N2CCC[C@H]2C(=O)N2CCC[C@H]2C(=O)N2CCC[C@H]2C(=O)N[C@@H](CO)C(=O)N[C@@H](CS)C(N)=O)C(C)C)NC(=O)[C@H](C)NC(=O)[C@H](C)NC(=O)[C@H](CCC(N)=O)NC1=O [mt-176],0.23%,26.24%,exemplary GIP/glucagon co-agonist peptides,40.00%,–,–,–
CC[C@H](C)[C@H](NC(=O)[C@H](CO)NC(=O)[C@H](Cc1ccc(O)cc1)NC(=O)[C@H](CC(=O)O)NC(=O)[C@H](CO)NC(=O)[C@@H](NC(=O)[C@H](Cc1ccccc1)NC(=O)[C@@H](NC(=O)CNC(=O)[C@H](CCC(N)=O)NC(=O)C(C)(C)NC(=O)[C@@H](N)Cc1ccc(O)cc1)[C@@H](C)O)[C@@H](C)CC)C(=O)N[C@@H](Cc1ccc(O)cc1)C(=O)N[C@@H](CC(C)C)C(=O)N[C@@H](CC(=O)O)C(=O)N[C@H]1CCC(=O)NCCCC[C@@H](C(=O)N[C@@H](CCC(=O)O)C(=O)N[C@@H](Cc2ccccc2)C(=O)N[C@H](C(=O)N[C@@H](CS)C(=O)N[C@@H](Cc2c[nH]c3ccccc23)C(=O)N[C@@H](CC(C)C)C(=O)N[C@@H](CC(C)C)C(=O)N[C@@H](C)C(=O)NCC(N)=O)C(C)C)NC(=O)[C@H](C)NC(=O)[C@H](C)NC(=O)[C@H](CCC(N)=O)NC1=O [mt-177] (H-Y[Aib]QGTFISDYSIYLDEQAAKEFVCWLLAG-NH2; lactam 16-20; N-terminus assumed),0.10%,38.95%,exemplary GIP/glucagon co-agonist peptides,19.30%,21 nM,0.095 nM,0.114 nM
CC[C@H](C)[C@H](NC(=O)[C@H](CO)NC(=O)[C@H](Cc1ccc(O)cc1)NC(=O)[C@H](CC(=O)O)NC(=O)[C@H](CO)NC(=O)[C@@H](NC(=O)[C@H](Cc1ccccc1)NC(=O)[C@@H](NC(=O)CNC(=O)[C@H](CCC(N)=O)NC(=O)C(C)(C)NC(=O)[C@@H](N)Cc1ccc(O)cc1)[C@@H](C)O)[C@@H](C)O)C(=O)N[C@@H](Cc1ccc(O)cc1)C(=O)N[C@@H](CC(C)C)C(=O)N[C@@H](CC(=O)O)C(=O)N[C@@H](CCC(=O)O)C(=O)N[C@@H](CCC(=O)O)C(=O)N[C@@H](C)C(=O)N[C@H](C(=O)N[C@@H](CCCNC(=N)N)C(=O)N[C@@H](CC(C)C)C(=O)N[C@@H](Cc1ccccc1)C(=O)N[C@H](C(=O)N[C@@H](CC(N)=O)C(=O)N[C@@H](Cc1c[nH]c2ccccc12)C(=O)N[C@@H](CC(C)C)C(=O)N[C@@H](CC(C)C)C(=O)N[C@@H](C)C(=O)NCC(=O)NCC(=O)N1CCC[C@H]1C(=O)N[C@@H](CO)C(=O)N[C@@H](CO)C(=O)NCC(=O)N[C@@H](C)C(=O)N1CCC[C@H]1C(=O)N1CCC[C@H]1C(=O)N1CCC[C@H]1C(=O)N[C@@H](CO)C(N)=O)C(C)C)C(C)C [mt-201] (H-Y[Aib]QGTFTSDYSIYLDEEAVRLFVNWLLAGGPSSGAPPPS-NH2; N-terminus assumed),191.67%,0.24%,exemplary GLP-1/GIP co-agonist peptides,44.44%,–,–,–
CC[C@H](C)[C@H](NC(=O)[C@H](CO)NC(=O)[C@H](Cc1ccc(O)cc1)NC(=O)[C@H](CC(=O)O)NC(=O)[C@H](CO)NC(=O)[C@@H](NC(=O)[C@H](Cc1ccccc1)NC(=O)[C@@H](NC(=O)CNC(=O)[C@H](CCC(=O)O)NC(=O)C(C)(C)NC(=O)[C@@H](N)Cc1ccc(O)cc1)[C@@H](C)O)[C@@H](C)O)C(=O)N[C@@H](Cc1ccc(O)cc1)C(=O)N[C@@H](CC(C)C)C(=O)N[C@@H](CC(=O)O)C(=O)N[C@H]1CCC(=O)NCCCC[C@@H](C(=O)N[C@@H](CCC(=O)O)C(=O)N[C@@H](Cc2ccccc2)C(=O)N[C@H](C(=O)N[C@@H](CC(N)=O)C(=O)N[C@@H](Cc2c[nH]c3ccccc23)C(=O)N[C@@H](CC(C)C)C(=O)N[C@@H](CC(C)C)C(=O)N[C@@H](C)C(=O)NCC(=O)N[C@@H](CCCNC(=N)N)C(=O)N2CCC[C@H]2C(=O)N[C@@H](CO)C(=O)N[C@@H](CO)C(=O)NCC(=O)N[C@@H](C)C(=O)N2CCC[C@H]2C(=O)N2CCC[C@H]2C(=O)N2CCC[C@H]2C(=O)N[C@@H](CO)C(=O)N[C@@H](CS)C(N)=O)C(C)C)NC(=O)[C@H](C)NC(=O)[C@H](C)NC(=O)[C@H](CCC(N)=O)NC1=O [mt-204] (H-Y[Aib]EGTFTSDYSIYLDEQAAKEFVNWLLAGRPSSGAPPPSC-NH2; lactam 16-20; N-terminus assumed),161.11%,0.06%,exemplary GLP-1/GIP co-agonist peptides,19.73%,0.018 nM,108 nM,0.147 nM
